This is an account of results in paper PMC7756392, “Syntheses of Thailandepsin B Pseudo‐Natural Products: Access to New Highly Potent HDAC Inhibitors via Late‐Stage Modification” (Chemistry (Weinheim an Der Bergstrasse, Germany), 2020).

One test has as its target T1, hHDAC8 (Homo sapiens, UniProt Q9BY41).
T1 sequence (Q9BY41 1-377): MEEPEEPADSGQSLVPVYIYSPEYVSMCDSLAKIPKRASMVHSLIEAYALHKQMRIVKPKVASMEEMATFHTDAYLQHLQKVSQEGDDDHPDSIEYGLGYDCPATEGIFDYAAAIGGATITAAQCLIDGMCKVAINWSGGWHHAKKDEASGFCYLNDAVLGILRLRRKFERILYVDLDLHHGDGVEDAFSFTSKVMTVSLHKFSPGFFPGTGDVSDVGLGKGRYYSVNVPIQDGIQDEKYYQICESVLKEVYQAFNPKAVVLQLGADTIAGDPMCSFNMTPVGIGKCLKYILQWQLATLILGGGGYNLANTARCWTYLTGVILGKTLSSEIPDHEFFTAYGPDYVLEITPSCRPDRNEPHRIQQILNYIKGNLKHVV
Description: ZMTFAL trypsin assay, HDAC8. The test is classed as biochemical. The protocol:
[28] Assays for HDAC1/6 were prepared according to: B. Heltweg , J. Trapp , M. Jung , Methods 2005, 36, 332–337; assays for HDAC8 were prepared according to: J. Senger , J. Melesina , M. Marek , C. Romier , I. Oehme , O. Witt , W. Sippl , M. Jung , J. Med. Chem. 2016, 59, 1545–1555. […]
After […]
incubation (30 min at 37 °C) fluorescence signal (λex = 390 nm, λem = 460 nm) was measured on a BMG LABTECH POLARstar OPTIMA plate reader (BMG Labtechnologies, Germany).10 hHDAC8: Enzyme was obtained from cooperation partners (Romier).11 Assay was performed as described before. 22.5 µL of enzyme solution in assay buffer (15 mM Tris, pH 7.5, 50 mM KH2PO4, 10 mM KCl, 3 mM MgSO4·7H2O and 0.2 mM TCEP), increasing inhibitor concentrations in DMSO (2.5 μL) and 5 µL of ZMTFAL substrate solution ([…]) were incubated for 90 min at 37 °C in ½ AreaPlate-96 F microplates (PerkinElmer). 30 µL of stop solution (see HDAC1/6) were added. After incubation (30 min at 37 °C) fluorescence signal was […]

Another test concerns HL60 cells. Description: MTS cell viability assay, HL60. The note with it: for GI50 (in words): 72 h. It is filed as cell-based. The protocol:
hHDAC1/6: Activity assays were performed in OptiPlateTM-96 F black microplates (PerkinElmer). Commercial available enzymes (human recombinant HDAC1; BPS Bioscience, catalog no. 50051 and human recombinant HDAC6; BPS Bioscience, catalog no. 50006) were used. Total assay volume of 60 µL contains 42 µl of assay buffer (50 mM Tris -HCl, pH 8.0, 137 mM NaCl, 2.7 mM KCl, 1 mM MgCl2, 0.2 mM TCEP and 1 mg/mL bovine serum albumin), 10 µL of enzyme solution in assay buffer, 3 µL of increasing concentrations of inhibitors in DMSO and 5 μL of the fluorogenic substrate ZMAL (Z -(Ac)Lys-AMC) (126 μM). After incubation (90 min, 37 °C) 60 µL of stop solution, containing 5 μL Trichostatin A (TSA) (33 μM) and 10 μL trypsin (6 mg/mL) in trypsin buffer (Tris-HCl 50 mM, pH 8.0, NaCl 100 mM), were added. After incubation (30 min at 37 °C) fluorescence signal (λex = 390 nm, λem = 460 nm) was measured on a BMG LABTECH POLARstar OPTIMA plate reader (BMG Labtechnologies, Germany).10 hHDAC8: Enzyme was obtained from cooperation partners (Romier).11 Assay was performed as described before. […] After incubation (30 min at 37 °C) fluorescence signal was determined as mentioned for HDAC1/6.12 […]
Cell proliferation was determined by using the Celltiter 96 AQueous nonradioactive Proliferation Assay (Promega). After 72h of incubation time with inhibitor or DMSO, 20 µL of a mixture (20:1) consisting of MTS (3-(4,5-dimethylthiazol-2-yl)-5-(3-carboxymethoxyphenyl)-2-(4-sulfophenyl-2H-tetrazolium) and PMS (phenazine methosulfate) were added to each well. Absorption was measured after another 2-4 h with a BMG LABTECH POLARstar OPTIMA plate reader (BMG Labtechnologies, Germany).
Experiments were performed in triplicates and GI50 values were calculated using the software Origin 2019. […]
CO2. […] After another 20 min of incubation, the fluorescence signal (λex = 390 nm, λem = 460 nm) was measured on a BMG LABTECH POLARstar OPTIMA plate reader (BMG Labtechnologies, Germany). […]

SMILES strings stand for the structures.

For `CCCC[C@H]1NC(=O)C[C@@H](/C=C/CCSC(C)=O)OC(=O)C[C@H](O)[C@@H]([C@@H](C)CC)NC(=O)[C@@H](C)NC1=O` [compound 33], at 10 µM the inhibition against hHDAC8 was 22%. For the same molecule, in the test on HL60 cells, the “GI50 (in words)” value was “nanomolar”.
Taken in the same sequence, the figures for `CCCC[C@H]1NC(=O)C[C@@H](/C=C/CCSC(C)=O)OC(=O)C[C@H](O[Si](C)(C)C(C)(C)C)[C@@H]([C@@H](C)CC)NC(=O)[C@@H](C)NC1=O` [compound 32] were 30% and “micromolar”.
With `CCCC[C@H]1NC(=O)C[C@@H](/C=C/CCC(=O)NO)OC(=O)C[C@H](O)[C@@H]([C@@H](C)CC)NC(=O)[C@@H](C)NC1=O` [compound 8], on hHDAC8, the inhibition at 10 µM came out at 21%. Besides, in the test with HL60 cells (5 μM), the “growth inhibition at 5 μM (in words)” value is “did not inhibit growth”.

In general, inhibition refers to the drop in the measured response relative to a control, in per cent.
